Test results published in paper PMC3900240 (Biochimica et biophysica acta, 2013).

Molecular target: T1, SoArsAB (Sporomusa ovata, UniProt F6MZ55+F6MZ56)
T1 sequence (F6MZ55 5-350 limits assumed): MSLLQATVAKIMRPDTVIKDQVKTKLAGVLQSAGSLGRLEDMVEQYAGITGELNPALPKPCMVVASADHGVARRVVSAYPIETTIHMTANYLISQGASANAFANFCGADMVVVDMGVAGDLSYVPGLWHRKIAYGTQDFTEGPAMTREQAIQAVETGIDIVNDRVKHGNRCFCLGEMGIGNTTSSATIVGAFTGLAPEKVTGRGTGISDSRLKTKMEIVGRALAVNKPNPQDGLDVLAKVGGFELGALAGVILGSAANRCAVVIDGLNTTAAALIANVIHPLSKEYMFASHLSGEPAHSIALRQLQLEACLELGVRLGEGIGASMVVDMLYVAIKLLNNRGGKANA
T1 sequence (F6MZ56 1-350): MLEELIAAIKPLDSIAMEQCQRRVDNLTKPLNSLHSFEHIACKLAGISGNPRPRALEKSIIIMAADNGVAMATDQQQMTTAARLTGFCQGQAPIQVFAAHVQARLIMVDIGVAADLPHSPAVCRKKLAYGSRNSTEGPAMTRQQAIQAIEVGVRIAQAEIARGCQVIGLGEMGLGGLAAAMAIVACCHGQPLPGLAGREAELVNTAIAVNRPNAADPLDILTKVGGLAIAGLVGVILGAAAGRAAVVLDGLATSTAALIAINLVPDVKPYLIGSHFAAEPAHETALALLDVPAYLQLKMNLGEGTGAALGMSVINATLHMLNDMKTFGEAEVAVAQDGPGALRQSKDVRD
Test: HPLC product formation
Assay type: biochemical
Settings: pH 10, 37 °C, 6 h

`O=C([O-])c1ccc[n+]([C@@H]2O[C@H](COP(=O)(O)O)[C@@H](O)[C@H]2O)c1` [NaMN, nicotinate mononucleotide] was tested. Which HPLC product formation (3 mM p-cresol) did it give?
The HPLC product formation was “using SeCobT^WT, SeCobT^S80Y,Q88M,L175M or SoArsAB with NaMN and p-cresol”.

How did the HPLC product formation (3 mM NaMN) turn out when `Cc1ccc(O)cc1` [p-cresol] was run?
Its HPLC product formation is “using SeCobT^WT, SeCobT^S80Y,Q88M,L175M or SoArsAB with NaMN and p-cresol”.
